For seven compounds, IC50 results are on record in BindingDB's records for doi:10.1016/j.bioorg.2015.06.003 (Gwangju Institute of Science and Technology, 2015).

A word on the IC50: it is the concentration that gives 50% inhibition. A higher IC50 goes with weaker potency in that assay.

Structures are written as SMILES.

The experiment addresses T1, P2X purinoceptor 7 (Homo sapiens, UniProt Q99572).
T1 sequence (Q99572 whole entry): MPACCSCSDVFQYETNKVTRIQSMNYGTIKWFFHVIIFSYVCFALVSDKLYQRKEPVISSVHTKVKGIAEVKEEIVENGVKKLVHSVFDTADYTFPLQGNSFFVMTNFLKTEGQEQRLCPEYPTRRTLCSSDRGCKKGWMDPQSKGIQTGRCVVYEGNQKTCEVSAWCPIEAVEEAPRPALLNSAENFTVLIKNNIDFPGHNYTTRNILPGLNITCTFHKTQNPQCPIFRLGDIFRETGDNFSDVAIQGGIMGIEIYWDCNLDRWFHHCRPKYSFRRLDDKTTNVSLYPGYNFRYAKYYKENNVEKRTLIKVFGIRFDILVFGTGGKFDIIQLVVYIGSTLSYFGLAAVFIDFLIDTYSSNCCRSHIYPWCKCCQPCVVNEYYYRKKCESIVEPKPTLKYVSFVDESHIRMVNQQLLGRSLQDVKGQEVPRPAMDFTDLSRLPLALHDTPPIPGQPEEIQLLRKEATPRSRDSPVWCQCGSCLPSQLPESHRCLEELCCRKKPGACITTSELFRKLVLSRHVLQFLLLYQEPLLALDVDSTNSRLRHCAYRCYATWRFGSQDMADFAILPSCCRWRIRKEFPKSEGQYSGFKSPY
In words: Ethidium Bromide Uptake Assay. As to conditions: pH 7.4. On the procedure: hP2X7-expressing HEK 293 cells were re-suspended at 2.5 × 10^6 cells/mL in assay buffer composed of 10 mM HEPES, 5 mM N-methyl-D-glutamine, 5.6 mM KCl, 10 mM D-glucose, and 0.5 mM CaCl2 (pH 7.4) supplemented with either 280 mM sucrose or 140 mM NaCl, and an 80 µL aliquot was added to each well of a 96-well plate. To each compound were added and KN-62 as the positive control, followed by the hP2X7R agonist benzoyl ATP (BzATP). The plates were incubated at 37 °C for 2 h and the cellular accumulation of ethidium ion was determined by measuring fluorescence (excitation = 530 nm; emission = 590 nm).
`CC12CC3CC(C)(C1)CC(C(=O)NNc1ncnc4nc[nH]c14)(C3)C2` [3,5-Dimethyl-N'-(7H-purin-6-yl)adamantane-1-carbohydrazide (9n)] yielded an IC50 of 2880 nM.

For the compound `CC12CC3CC(C)(C1)CC(C(=O)NNc1ncnc4ccccc14)(C3)C2` [3,5-Dimethyl-N'-(quinazolin-4-yl)adamantane-1-carbohydrazide (9k)], half-maximal inhibition (IC50) required 5500 nM.

Compound `CC12CC3CC(C)(C1)CC(C(=O)NNc1ccc4ccccc4n1)(C3)C2` [3,5-Dimethyl-N'-(quinolin-2-yl)adamantane-1-carbohydrazide (9i)] had a half-maximal inhibitory concentration (IC50) of 2900 nM.

Turning to `CC12CC3CC(C)(C1)CC(C(=O)NNc1cnc4ccccc4c1)(C3)C2` [3,5-Dimethyl-N'-(quinolin-3-yl)adamantane-1-carbohydrazide (9h)], inhibition was half-maximal at 3700 nM (IC50). The IC50 values of the last two compounds are within 1.5-fold of each other.

`CC12CC3CC(C)(C1)CC(C(=O)NNc1ccnc4ccccc14)(C3)C2` [3,5-Dimethyl-N'-(quinolin-4-yl)adamantane-1-carbohydrazide (9g)] gave an IC50 of 726 nM.

Regarding `CC12CC3CC(C)(C1)CC(C(=O)NNc1nc(Cl)nc4nc[nH]c14)(C3)C2` [N'-(2-Chloro-7H-purin-6-yl)-3,5-dimethyladamantane-1-carbohydrazide (9o)], the IC50 came out at 176 nM.

`CC12CC3CC(C)(C1)CC(C(=O)NNc1ccnc4c(Cl)cccc14)(C3)C2` [N'-(8-Chloroquinoline-4-yl)-3,5-dimethyladamantanehydrazide (9j)] gave an IC50 of 1100 nM.
